Test system: cellular CDK9 activity (RNA Polymerase II Ser2 phosphorylation)
Assay: RNA-Polymerase II Ser2 Cellular Phosphorylation Assay
Assay type: cell-based
Details: Homo sapiens; HCT-116 cells, normalized with tubulin; read-out: RNA Polymerase II Ser2 Phosphorylation (activity range), IC50
Method: 3.1 RNA-Polymerase II Ser2 Cellular Phosphorylation Assay:
HCT-116 cells (DSMZ, Braunschweig, Germany) were maintained in Mc Coy's cell culture medium+glutamine (PAN Biotech GmbH, Aidenbach, Germany) supplemented with 10% fetal calf serum (PAA Laboratories GmbH, Pasching, Austria) and grown at 37° C., 5% CO2. For the cellular phosphorylation assay, cells were seeded with 2×10^5 cells/well/1 ml in 24-well plates (Greiner Bio One, Frickenhausen, Germany; catalog #662160). The compounds of general formula (I) summarized in Table 6 were diluted from a 10 mM DMSO stock solution 1:10 in a total volume of 15 μL DMSO. After overnight incubation at 37° C./5% CO2, 1.5 μL of a compound diluted in DMSO was added to each sample well. Wells with cells and 0.15% DMSO in culture medium were used as positive controls, wells without cells and 0.15% DMSO in culture medium were used as negative controls. […] Phosphorylation of RNA Polymerase II Ser2 and tubulin levels for normalization were analyzed afterwards with the Multi-Array technology (Meso Scale Discovery, Gaithersburg, Md., USA), a combination of antibody coupled electrochemiluminescence detection and patterned arrays. […] Finally, plates were washed three times with Tris Wash Buffer, 150 μl 2× Read Buffer (Meso Scale Discovery) were added per well and plates were analyzed immediately in a Sector Imager from Meso Scale Discovery. […]

Work on `NS(=O)(=O)Cc1cccc(Nc2ncnc(N3CCc4ncccc4C3)n2)c1` [Compound B38, 3-[(4-(7,8-Dihydro-1,6-naphthyridin-6(5H)-yl)-1,3,5-triazin-2-yl)amino]-benzenemethanesulfonamide] yielded an IC50 of over 10 µM.

From patent US9226929B2, “Pharmaceutically active disubstituted triazine derivatives” (Bayer Intellectual Property GMBH, priority 2011, dated 2016)
